Assay results published in patent publication US8338565B2, “Macrocyclic compounds for inhibition of tumor necrosis factor alpha” (Ensemble Therapeutics Corporation, priority 2008, dated 2012).
Like-named read-outs stand apart in the source and are kept apart here. Numbered stars: 1 amine (or outer) side, 2 acyl side, 3 side chain; on linkers, the order of the positions; unused ones are H or OH. Bridge positions count the residues as written; N and C are the ends. Square brackets hold non-standard residues; d marks the D form. Peptide text beside a SMILES is read from it. * marks the point of attachment. Tartaroyl(2R,3R-(OAc)2) = CC(=O)O[C@@H](C(=O)[*:1])[C@@H](OC(C)=O)C(=O)[*:2]; dPhe(4-CF3) = N[C@H](Cc1ccc(C(F)(F)F)cc1)C(=O)O; Phe(4-COOH) = N[C@@H](Cc1ccc(C(=O)O)cc1)C(=O)O; Bip = N[C@@H](Cc1ccc(-c2ccccc2)cc1)C(=O)O; dPhe(4-NH2) = Nc1ccc(C[C@@H](N)C(=O)O)cc1; Phe(4-Br) = N[C@@H](Cc1ccc(Br)cc1)C(=O)O; Phe(4-NH2) = Nc1ccc(C[C@H](N)C(=O)O)cc1; dAla(2-furyl) = N[C@H](Cc1ccco1)C(=O)O; d(hPhe) = N[C@H](CCc1ccccc1)C(=O)O; 3Pal = N[C@@H](Cc1cccnc1)C(=O)O; 2Thi = N[C@@H](Cc1cccs1)C(=O)O; d2Thi = N[C@H](Cc1cccs1)C(=O)O; Suc = O=C(CCC(=O)[*:2])[*:1]; Dap = NC[C@H](N)C(=O)O; OtBu = CC(C)(C)O*

Target: T1, TNFα / TNFα receptor (TNFα R1/Fc) (Homo sapiens, UniProt P01375)
T1 construct: purchased R&D Systems
Assay: Inhibition of binding of TNFα to the TNFα receptor (plate ELISA competition)
Details: Table 2
Description: The compounds listed in Table 2 below were assayed for ability to inhibit binding of TNFα to the TNFα receptor (TNFα R1/Fc). The assays were performed as described in the following procedure: TNFα (R&D Systems) was coated on high binding plate wells (Corning 96-well) at a single uniform concentration of 15 nM, 100 μL/well in PBS. The coating proceeded for 30 minutes at 37° C. then 10 minutes at 4° C. The coated plate was washed with PBST, then 250 μL/well of blocking solution (PBST 0.1% BSA, bovine serum albumin) was added and incubation proceeded for 30-45 minutes at room temperature with agitation. The solution phase competition proceeded separately with the dilutions of test compound in PBST (phosphate buffered saline with Tween 20), 2% DMSO in a polypropylene plate (Corning 96-well storage plate) with a single concentration, 8.33 nM of the high affinity receptor for TNFα (R&D Systems). This solution phase incubation proceeded for 30 minutes at room temperature with agitation and was then added to the washed TNFα coated assay plate, 100 μL/well, and was incubated for a further 30 minutes at room temperature with agitation. The assay plate was washed and 100 μL goat anti-human IgG (Fc) HRP labeled antibody in PBST, 13 pM, (KPL Cat#04-10-2) was added to each well. This incubation proceeded for 25-30 minutes at room temperature with agitation. Following this incubation step, the plate was washed and a 100 μL TMB solution (SUREBLUE™ TMB Peroxidase substrate, KPL) was added per well and allowed to stand approximately 3-5 minutes for development. The TMB reaction was stopped with the addition of 0.5N HCl and then the plate was read for absorbance at 450 nm.

[1] = read-out: Activity (IC50, inhibition of TNFα binding to TNFα R1/Fc)
[2] = Activity (IC50, inhibition of TNFα binding to TNFα R1/Fc)

T1 sequence (P01375 77-233 limits assumed, species assumed): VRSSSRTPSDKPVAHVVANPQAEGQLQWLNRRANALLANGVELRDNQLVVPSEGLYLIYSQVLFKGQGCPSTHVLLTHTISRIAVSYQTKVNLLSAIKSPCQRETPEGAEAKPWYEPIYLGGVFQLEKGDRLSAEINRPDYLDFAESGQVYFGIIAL

| SMILES | IC50 [1] [µM] | IC50 [2] [µM] |
| --- | --- | --- |
| O=C1COc2ccc(cc2)C[C@@H](C(=O)O)NC(=O)[C@H](CCc2ccccc2)NC(=O)[C@@H](Cc2ccc(-c3ccccc3)cc2)NC(=O)[C@H](Cc2ccc(OCc3ccccc3)cc2)N1 [Compound 685] | < 10 | – |
| O=C1COc2ccc(cc2)C[C@@H](C(=O)O)NC(=O)[C@H](CCc2ccccc2)NC(=O)[C@@H](Cc2ccc(-c3ccccc3)cc2)NC(=O)[C@H](Cc2ccco2)N1 [Compound 687] | < 10 | – |
| O=C1CCC(=O)N[C@@H](Cc2cccs2)C(=O)N[C@@H](Cc2ccc(-c3ccccc3)cc2)C(=O)N[C@@H](Cc2ccccc2)C(=O)N[C@H](C(=O)O)Cc2ccc(cc2)N1 [Compound 495] ([2Thi][Bip]F[Phe(4-NH2)]-OH; linker N-4 via Suc) | > 100 | – |
| O=C1COc2ccc(cc2)C[C@@H](C(=O)O)NC(=O)[C@H](CCc2ccccc2)NC(=O)[C@@H](Cc2ccc(-c3ccccc3)cc2)NC(=O)[C@H](Cc2cccc(C(F)(F)F)c2)N1 [Compound 690] | 10 to 30 | – |
| O=C(O)CCCNC(=O)[C@@H]1Cc2ccc(cc2)OCC(=O)N[C@@H](Cc2c[nH]c3ccccc23)C(=O)N[C@H](Cc2ccc(-c3ccccc3)cc2)C(=O)N[C@@H](Cc2c[nH]c3ccccc23)C(=O)N1 [Compound 721] | < 10 | – |
| O=C1COc2ccc(cc2)C[C@@H](C(=O)O)NC(=O)[C@H](Cc2ccc(O)cc2)NC(=O)[C@@H](Cc2ccc(-c3ccccc3)cc2)NC(=O)[C@H](Cc2cccs2)N1 [Compound 427] | > 100 | – |
| CC(C)(C)OC(=O)CC[C@H]1NC(=O)[C@H](Cc2ccc(-c3ccccc3)cc2)NC(=O)[C@@H](Cc2cccs2)NC(=O)CCC(=O)Nc2ccc(cc2)C[C@@H](C(=O)O)NC1=O [Compound 67] ([d2Thi][Bip][dE](OtBu)[Phe(4-NH2)]-OH; linker N-4 via Suc) | 30 to 100 | – |
| CC(C)(C)Oc1ccc(C[C@@H]2NC(=O)[C@H](Cc3ccc(-c4ccccc4)cc3)NC(=O)[C@H](Cc3cccs3)NC(=O)COc3ccc(cc3)C[C@@H](C(=O)O)NC2=O)cc1 [Compound 347] | 30 to 100 | – |
| CC(=O)O[C@H]1C(=O)Nc2ccc(cc2)C[C@H](C(=O)O)NC(=O)[C@@H](Cc2ccco2)NC(=O)[C@H](Cc2ccc(Br)cc2)NC(=O)[C@@H](Cc2ccccc2)NC(=O)[C@@H]1OC(C)=O [Compound 160] ([dF][Phe(4-Br)][dAla(2-furyl)][dPhe(4-NH2)]-OH; linker N-4 via Tartaroyl(2R,3R-(OAc)2)) | 30 to 100 | – |
| C[C@H](NC(=O)[C@@H]1Cc2ccc(cc2)NC(=O)CCC(=O)N[C@H](Cc2ccccc2)C(=O)N[C@@H](Cc2ccc(-c3ccccc3)cc2)C(=O)N[C@H](CCc2ccccc2)C(=O)N1)C(=O)O [Compound 458] ([dF][Bip][d(hPhe)][Phe(4-NH2)]A-OH; linker N-4 via Suc) | > 100 | – |
| O=C1CCC(=O)N[C@H](Cc2cccs2)C(=O)N[C@@H](Cc2ccc(-c3ccccc3)cc2)C(=O)N[C@H](Cc2ccc(C(F)(F)F)cc2)C(=O)N[C@H](C(=O)O)Cc2ccc(cc2)N1 [Compound 79] ([d2Thi][Bip][dPhe(4-CF3)][Phe(4-NH2)]-OH; linker N-4 via Suc) | > 100 | – |
| O=C1COc2ccc(cc2)C[C@@H](C(=O)O)NC(=O)[C@@H](Cc2cccc(C(F)(F)F)c2)NC(=O)[C@H](Cc2ccc(-c3ccccc3)cc2)NC(=O)[C@@H](Cc2cccs2)N1 [Compound 533] | > 100 | – |
| CC(C)(C)OC(=O)CC[C@@H]1NC(=O)[C@H](Cc2ccc(-c3ccccc3)cc2)NC(=O)[C@H](Cc2cccs2)NC(=O)COc2ccc(cc2)C[C@@H](C(=O)O)NC1=O [Compound 259] | 30 to 100 | – |
| O=C(O)CCCNC(=O)[C@@H]1Cc2ccc(cc2)OCC(=O)N[C@@H](Cc2ccc(-c3ccncc3)cc2)C(=O)N[C@H](Cc2ccc(-c3ccccc3)cc2)C(=O)N[C@@H](CCc2ccccc2)C(=O)N1 [Compound 580] | < 10 | – |
| C[C@@H](NC(=O)[C@@H]1Cc2ccc(cc2)OCC(=O)N[C@@H](Cc2ccc(-c3ccccc3)cc2)C(=O)N[C@H](Cc2ccc(-c3ccccc3)cc2)C(=O)N[C@@H](CCc2ccccc2)C(=O)N1)C(=O)O [Compound 577] | < 10 | – |
| O=C1COc2ccc(cc2)C[C@H](C(=O)O)NC(=O)[C@H](Cc2c[nH]c3ccccc23)NC(=O)[C@@H](Cc2ccc(-c3ccccc3)cc2)NC(=O)[C@H](Cc2ccncc2)N1 [Compound 732] | > 100 | – |
| CC(=O)N[C@H]1CNC(=O)c2ccc(cc2)C[C@@H](C(=O)O)NC(=O)[C@@H](Cc2ccccc2)NC(=O)[C@H](Cc2ccc(-c3ccccc3)cc2)NC(=O)[C@@H](CCc2ccccc2)NC1=O [Compound 266] (Ac-[Dap][d(hPhe)][Bip][dF][Phe(4-COOH)]-OH; lactam 1-5) | > 100 | – |
| N[C@H]1CNC(=O)c2ccc(cc2)C[C@@H](C(=O)O)NC(=O)[C@@H](Cc2ccccc2)NC(=O)[C@H](Cc2ccc(-c3ccccc3)cc2)NC(=O)[C@@H](CCc2ccccc2)NC1=O [Compound 265] (H-[Dap][d(hPhe)][Bip][dF][Phe(4-COOH)]-OH; lactam 1-5) | > 100 | – |
| O=C1CNC(=O)c2ccc(cc2)C[C@@H](C(=O)O)NC(=O)[C@@H](Cc2ccccc2)NC(=O)[C@H](Cc2ccc(-c3ccccc3)cc2)NC(=O)[C@@H](CCc2ccccc2)N1 [Compound 247] (G[d(hPhe)][Bip][dF][Phe(4-COOH)]-OH; lactam N-5) | > 100 | – |
| O=C(O)C[C@@H]1Cc2ccc(cc2)NC(=O)[C@H](O)[C@@H](O)C(=O)N[C@H](Cc2cccs2)C(=O)N[C@@H](Cc2ccc(-c3ccccc3)cc2)C(=O)N[C@H](Cc2ccccc2)C(=O)N1 [Compound 309] | 10 to 30 | – |
| O=C1COc2ccc(cc2)C[C@@H](C(=O)O)NC(=O)[C@@H](Cc2ccccc2)NC(=O)[C@H](Cc2ccc(-c3ccccc3)cc2)NC(=O)[C@H](Cc2cccs2)N1 [Compound 215] | 30 to 100 | – |
| O=C(O)[C@@H]1Cc2ccc(cc2)NC(=O)[C@H](O)[C@@H](O)C(=O)N[C@H](Cc2cccs2)C(=O)N[C@H](Cc2ccc(-c3ccccc3)cc2)C(=O)N[C@H](Cc2ccccc2)C(=O)N1 [Compound 269] | > 100 | – |
| O=C1CCC(=O)N[C@H](CCc2ccccc2)C(=O)N[C@@H](Cc2ccc(-c3ccccc3)cc2)C(=O)N[C@H](Cc2ccccc2)C(=O)N[C@H](C(=O)N[C@@H](Cc2cccnc2)C(=O)O)Cc2ccc(cc2)N1 [Compound 403] ([d(hPhe)][Bip][dF][Phe(4-NH2)][3Pal]-OH; linker N-4 via Suc) | > 100 | – |
| O=C1CCC(=O)N[C@H](Cc2cccs2)C(=O)N[C@@H](Cc2ccc(-c3ccccc3)cc2)C(=O)N[C@@H](Cc2cccnc2)C(=O)N[C@H](C(=O)O)Cc2ccc(cc2)N1 [Compound 52] ([d2Thi][Bip][3Pal][Phe(4-NH2)]-OH; linker N-4 via Suc) | > 100 | – |
| O=C1COc2ccc(cc2)C[C@@H](C(=O)O)NC(=O)[C@H](Cc2ccccc2F)NC(=O)[C@@H](Cc2ccc(-c3ccccc3)cc2)NC(=O)[C@H](Cc2cccs2)N1 [Compound 625] | < 10 | – |
| O=C1N[C@H](CCc2ccccc2)C(=O)N[C@@H](C(=O)O)Cc2ccc(cc2)NC(=O)[C@H](O)[C@@H](O)C(=O)N[C@H](Cc2cccs2)C(=O)N[C@H]1Cc1ccc(Br)cc1 [Compound 238] | < 10 | – |
| O=C1COc2ccc(cc2)CC(C(=O)O)NC(=O)C(Cc2ccccc2)NC(=O)C(Cc2ccc([N+](=O)[O-])cc2)NC(=O)C(Cc2cccs2)N1 (stereo not shown) [Compound 358] | – | > 100 |
| O=C1COc2ccc(cc2)C[C@@H](C(=O)N[C@H](Cc2ccccc2)C(=O)O)NC(=O)[C@H](CCc2ccccc2)NC(=O)[C@@H](Cc2ccc(-c3ccccc3)cc2)NC(=O)[C@H](Cc2ccncc2)N1 [Compound 553] | – | < 10 |
